# Assays:
# CT-DNA [1] = assay: EB–CT-DNA fluorescence quenching; format: binding, calf; conditions: EB–CT-DNA 8.52 × 10^−5 M, PBS pH 7.4
# Protocol: All samples were prepared in phosphate-buffered saline (PBS, pH 7.4). Stern–Volmer Equation (2) was used to interpret the fluorescence quenching data.
# mouse lung cancer (LLC1) = assay: MTT assay LLC1; format: cell-based
# Protocol: (§1) Mouse breast cancer (4T1), human breast cancer (MDA-MB-468), mouse colon cancer (CT26), human colon cancer (HCT-116), mouse lung cancer (LLC1), human lung cancer (A549), mouse mesenchymal stem cells (mMSC), and human fibroblast cell lines (MRC-5) were used in this study and were consistently cultured in complete Dulbecco’s Modified Eagle Medium (DMEM) (Sigma-Aldrich, St. Louis, MO, USA) in incubator (5% CO2) under standard conditions. Complete DMEM was Dulbecco’s Modified Eagle Medium supplemented with 10% fetal bovine serum (FBS), 1 mmol/L penicillin–streptomycin, 1 mmol/L mixed nonessential amino acids, and 2 mmol/L L-glutamine (Sigma-Aldrich, St. Louis, MO, USA). All cancer cell lines and MRC-5 cell line were obtained from American Type Culture Collection (ATCC, Manassas, VA, USA), but mMSC was manufactured by Gibco (Middlesex County, MA, USA).
# (§2) In 96-well microplates, we seeded cancer and non-cancer cells, more exactly 5 × 10^3 cells per well in 100 μL of complete DMEM (Sigma-Aldrich, St. Louis, MO, USA). […] Tested concentration range for all metal-based substances was 3.9–500 μM. After incubation with MTT solution (5 mg/mL; pH 7.2) for 4 h, optical density was determined using Zenyth 3100 microplate multimode detector (Salzburg, Austria). All experiments were performed three times, each in triplicate, and the IC50 values as well as selectivity indexes (IC50 for mMSC or MRC-5/IC50 for mouse or human cancer cells) were calculated.
# human lung cancer (A549) = assay: MTT assay A549; format: cell-based
# Protocol: as §1, §2
# CT-DNA [2] = assay: UV-Vis absorption titration with CT-DNA; format: binding, calf; conditions: ΔG = −RT lnKb
# Protocol: All DNA-binding studies were conducted in 0.01 M phosphate-buffered saline (PBS, pH 7.40) at 25 °C. […] To eliminate absorbance from CT-DNA, identical amounts of DNA were added to both the test and reference solutions prior to spectral recording.
# Intrinsic binding constants (Kb) were calculated using the equation to determine the DNA-binding affinities of the complexes (1):[DNA]/(εa − εf) = [DNA]/(εb − εf) + 1 [Kb(εb − εf)](1)
# [DNA] represents the concentration of DNA; apparent extinction coefficient, εa, was calculated as the ratio of the observed absorbance to the concentration of the complex (Aobs/[complex]); and εb and εf correspond to the extinction coefficients of the complex in the fully bound and free forms, respectively. Kb was determined from the ratio of the slope to the intercept obtained from the corresponding linear plots.
# [3] = tested on: human breast cancer (MDA-MB-468); assay: MTT assay MDA-MB-468; format: cell-based
# Protocol: as §1, §2
# CT-DNA [4] = assay: Viscosity measurements of DNA solution; design: species or system calf; conditions: up to r = 1.0, 8 µM DNA
# Protocol: Viscosity measurements were performed to evaluate the interaction of C2 and C4 with DNA. The flow time was measured with a digital stopwatch. For each concentration, six replicate measurements were taken, and the average flow time was used for analysis. The data were presented as (η/η0)^1/3 against r, where η is the viscosity of DNA in the presence of complex, and η0 is the viscosity of DNA alone in the buffered solution. The viscosity value was calculated from the observed flow time of DNA-containing solution (t) corrected for the flow time of buffer alone (t0), η = (t − t0)/t0.
# CT26 cells = assay: Annexin V/PI apoptosis in CT26; format: cell-based, mouse; conditions: 0.5 μM for 24 h
# Protocol: (§3) The following supporting information can be downloaded at https://www.mdpi.com/article/10.3390/pharmaceutics17101340/s1. NMR and FTIR spectra of free ligands and complexes. Figure S1. […] Inset: Plot of [DNA]/(εA − εf) vs. [DNA]. Figure S2. Relative viscosity (η/η0) ^1/3 of CT-DNA (8 µM) in PBS buffer solution with the addition of increasing amounts (r) of C2 and C4 complexes. Figure S3. […] [EB] = 8.52 × 10^−5 M; [DNA] = 8.52 × 10^−5 M; [complex] = (0–6.82) × 10^−5; λex = 527 nm. Arrows show the intensity changes upon increasing the concentration of the complex. Inset graph: Plot of I0/I vs. [Q]. Figure S4. […] [BSA] = 2 μM; [complex] = 0–8 μM; λex = 295 nm. Arrows show the intensity changes upon increasing the concentration of the complex. Inset graph: Plot of I0/I vs. [Q]. Figure S5. […] Figure S6. Dose-dependent cytotoxicity of silver(I) complexes with S-alkyl derivatives of thiosalicylic acid. […] All data are presented as mean values ± SD from three independent experiments performed in triplicate. Figure S7. Dose-dependent cytotoxicity of S-alkyl derivatives of thiosalicylic acid. […] All data are presented as mean values ± SD from three independent experiments performed in triplicate. Figure S8. […] Apoptotic rates of C2-treated (0.5 μM for 24 h) as well as untreated CT26 and HCT116 cells were determined by flow cytometry using Annexin V (FITC) and PI double staining. […]
# [5] = tested on: mouse mesenchymal stem cells (mMSC); assay: MTT assay mMSC; format: cell-based
# Protocol: as §1, §2
# HCT116 cells = assay: Annexin V/PI apoptosis in HCT116; format: cell-based, human; conditions: 0.5 μM for 24 h
# Protocol: as §3
# [6] = tested on: Mouse breast cancer (4T1); assay: MTT assay 4T1; format: cell-based; conditions: 4T1, 48 h
# Protocol: as §1, §2
# BSA = biological target: T1, BSA (Bos taurus, UniProt P02769); assay: BSA tryptophan fluorescence quenching; format: binding, bovine
# T1 construct: purchased Sigma-Aldrich
# T1 sequence (P02769 25-607): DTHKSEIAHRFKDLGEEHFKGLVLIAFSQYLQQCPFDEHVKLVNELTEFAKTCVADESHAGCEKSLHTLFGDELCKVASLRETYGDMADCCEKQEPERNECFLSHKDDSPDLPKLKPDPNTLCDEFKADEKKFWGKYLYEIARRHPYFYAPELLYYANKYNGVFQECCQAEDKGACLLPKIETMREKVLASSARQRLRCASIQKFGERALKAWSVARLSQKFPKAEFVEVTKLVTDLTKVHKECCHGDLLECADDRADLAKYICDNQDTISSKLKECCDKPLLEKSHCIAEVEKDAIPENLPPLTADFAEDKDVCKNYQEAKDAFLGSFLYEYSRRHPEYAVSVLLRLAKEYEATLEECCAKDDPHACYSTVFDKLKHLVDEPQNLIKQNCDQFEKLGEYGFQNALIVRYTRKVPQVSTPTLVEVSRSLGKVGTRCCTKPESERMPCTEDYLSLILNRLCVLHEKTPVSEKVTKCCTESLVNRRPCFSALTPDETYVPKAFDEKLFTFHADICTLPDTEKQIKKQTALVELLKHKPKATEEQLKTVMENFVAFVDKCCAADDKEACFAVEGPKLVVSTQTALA
# Protocol: The protein binding study was carried out using tryptophan fluorescence quenching experiments with BSA. […] Fluorescence emission spectra were recorded between 300 and 500 nm, with excitation at 295 nm.
# The quenching constant Ksv was determined based on the Stern–Volmer relationship, as described by Equation (3):I0/I = 1 + kqτ0[Q] = 1 + Ksv[Q](3)
# In this equation, I0 and I refer to the fluorescence intensities of BSA measured without and with the quencher (complex), τ0 represents the average fluorescence lifetime of free BSA (∼10^−8 s), and [Q] indicates the quencher concentration.
# Parameters such as association binding constant (K) and the number of binding sites per albumin (n) were obtained from Scatchard Equation (4):(ΔI/I0)/[Q] = nK − KΔI/I0(4)
# To minimize inner filter, both intensities of fluorescence originating from excitation and emission light absorption and re-absorption were corrected by employing Equation (5); Icor and Iobs are the corrected and observed fluorescence intensities, respectively, and Aex and Aem represent the absorbance of the metal complex at the excitation and emission wavelengths, respectively.Icor = Iobs · […]^(Aex + Aem)/2(5)
# [7] = tested on: human fibroblast cell lines (MRC-5); assay: MTT assay MRC-5; format: cell-based
# Protocol: as §1, §2
smiles,measurement,setting,value
"CCSc1ccccc1C(=O)[O][Ag].CCSc1ccccc1C(=O)[O][Ag] [C2, [Ag2(S-ethyl-thiosal)2]]",Ksv EB (Stern–Volmer constant),CT-DNA [1],(1.1 ± 0.1) × 10^4 M^−1
same,IC50,"mouse lung cancer (LLC1); LLC1, 24 h",18.2 ± 0.93 µM
same,Selectivity Index (IC50 mMSC or MRC-5/ IC50 Cancer Cell),"mouse lung cancer (LLC1); LLC1, 24 h",0.24
same,IC50,"mouse lung cancer (LLC1); LLC1, 48 h",20.2 ± 0.79 µM
same,Selectivity Index (IC50 mMSC or MRC-5/ IC50 Cancer Cell),"mouse lung cancer (LLC1); LLC1, 48 h",0.22
same,IC50,"human lung cancer (A549); A549, 24 h",37.8 ± 1.01 µM
same,Selectivity Index (IC50 mMSC or MRC-5/ IC50 Cancer Cell),"human lung cancer (A549); A549, 24 h",1.01
same,IC50,"human lung cancer (A549); A549, 48 h",50.2 ± 1.07 µM
same,Selectivity Index (IC50 mMSC or MRC-5/ IC50 Cancer Cell),"human lung cancer (A549); A549, 48 h",0.86
same,ΔG (Gibbs free energy),CT-DNA [2],-6.76 kcal/mol
same,IC50,"[3]; MDA-MB-468, 24 h",8.67 ± 1.13 µM
same,Selectivity Index (IC50 mMSC or MRC-5/ IC50 Cancer Cell),"[3]; MDA-MB-468, 24 h",4.39
same,IC50,"[3]; MDA-MB-468, 48 h",5.43 ± 0.34 µM
same,Selectivity Index (IC50 mMSC or MRC-5/ IC50 Cancer Cell),"[3]; MDA-MB-468, 48 h",7.95
same,viscosity of CT-DNA,CT-DNA [4],modest rise in the viscosity
same,apoptosis of CT26 cells,CT26 cells,underwent apoptosis
same,IC50,[5]; 24 h,4.29 ± 0.92 µM
same,IC50,[5]; 48 h,4.52 ± 0.48 µM
same,apoptosis of HCT116 cells,HCT116 cells,underwent apoptosis
same,IC50,[6],4.84 ± 0.92 µM
same,Selectivity Index (IC50 mMSC or MRC-5/ IC50 Cancer Cell),[6],0.93
same,kq (quenching rate constant),BSA; BSA 2 µM,(1.4 ± 0.1) × 10^13 M^−1 s^−1
same,Ksv (Stern–Volmer constant),"BSA; BSA 2 µM, λex 295 nm",(1.4 ± 0.1) × 10^5 M^−1
same,K (binding constant),BSA; Scatchard equation,(1.3 ± 0.1) × 10^5 M^−1
same,n (number of binding sites),BSA; Scatchard equation,1.1
same,IC50,"[7]; MRC-5, 24 h",38 ± 1.91 µM
same,IC50,"[7]; MRC-5, 48 h",43.2 ± 1.23 µM

# Source: PMC12567082, “Silver(I) Complexes Bearing S-Alkyl Thiosalicylic Acid Derivatives: DNA/BSA Binding and Antitumor Activity In Vitro and In Vivo” (Pharmaceutics, 2025)
